Each structure is given as a SMILES string.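 All cell lines were grown in 96-well plates and treated with compound for 48 hours. Abbreviation: GI50, concentration required for 50% inhibition of growth. At the TGI there is no net growth.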 Where only a bound is given, the exact number is not on record here.

Test systems include A498 renal; HL-60(TB) leukemia; HOP-62 NSCLC; HOP-92 NSCLC; HS 578T breast; LOX IMVI melanoma; SW-620 colon; U251 CNS; UO-31 renal; SR leukemia.
What all share (experiment): NCI-60 cell line screen, 48 h

`O=C(CC(Cl)=C(Cl)Cl)Nc1ccccc1`: the GI50 in the experiment on A498 renal, in the experiment with HL-60(TB) leukemia, in the experiment with HOP-62 NSCLC, with HS 578T breast, in the experiment with LOX IMVI melanoma and with SW-620 colon was over 100 µM throughout. The GI50 in the experiment on U251 CNS and in the experiment with UO-31 renal was over 100 µM throughout. Besides, the TGI in the experiment on A498 renal, in the experiment with HL-60(TB) leukemia, with HOP-62 NSCLC, in the experiment with HOP-92 NSCLC, in the experiment with HS 578T breast and in the experiment on LOX IMVI melanoma was over 100 µM each time. Moreover, the TGI in the experiment on SW-620 colon, with U251 CNS and with UO-31 renal was over 100 µM throughout.

On to `CC(C)(C)c1ccc(S(=O)(=O)Oc2ccc3c4c(c(=O)oc3c2)CCCCC4)cc1`, for which the GI50 in the experiment with A498 renal was 6.53 µM; in the experiment with HOP-62 NSCLC it was 21.5 µM; in the experiment with HOP-92 NSCLC it was 1.22 µM; in the experiment with HS 578T breast, 15.2 µM; with LOX IMVI melanoma, 32.5 µM; in the experiment on SW-620 colon it was 85.6 µM. For the same molecule, the GI50 was 12.5 µM with U251 CNS and 12.7 µM with UO-31 renal. Moreover, the TGI was 36.3 µM in the experiment with A498 renal; 46.2 µM in the experiment with HOP-62 NSCLC; 12.2 µM in the experiment with HOP-92 NSCLC; 74.3 µM in the experiment on HS 578T breast; over 100 µM in the experiment on LOX IMVI melanoma; over 100 µM in the experiment with SW-620 colon. The TGI stood at 54.4 µM with U251 CNS and 44 µM in the experiment with UO-31 renal.

As to `COc1cc(C2Cc3ncccc3-c3[nH]c(=O)c4cccnc4c32)cc(OC)c1OC` (centres undefined), the GI50 in the experiment on A498 renal is 0.363 µM; in the experiment on HL-60(TB) leukemia, 0.251 µM; in the experiment with HOP-62 NSCLC, 0.396 µM; in the experiment on HS 578T breast, 0.613 µM; in the experiment on LOX IMVI melanoma, 0.452 µM; in the experiment with SR leukemia, 0.281 µM. Besides, the results for the GI50 in the experiment on SW-620 colon, with U251 CNS and with UO-31 renal were 0.412 µM, 0.524 µM and 0.819 µM, respectively. For the same molecule, the TGI in the experiment with A498 renal was 13.5 µM; in the experiment on HL-60(TB) leukemia, 2.95 µM; with HOP-62 NSCLC, over 87.4 µM; in the experiment on HS 578T breast it was over 100 µM; in the experiment with LOX IMVI melanoma, over 100 µM; in the experiment with SR leukemia it was over 100 µM. Also, the TGI with SW-620 colon was over 100 µM; in the experiment with U251 CNS, 38.2 µM; in the experiment with UO-31 renal, over 100 µM.

Turning to `Cc1ccc(S(=O)(=O)OCCn2cnc3nc(NC(=O)c4ccccc4)[nH]c(=O)c32)cc1`, the TGI in the experiment on A498 renal, in the experiment on HL-60(TB) leukemia, in the experiment with HOP-62 NSCLC, with HOP-92 NSCLC, in the experiment on LOX IMVI melanoma and in the experiment on SR leukemia was over 100 µM in each case. Moreover, the TGI with SW-620 colon, in the experiment with U251 CNS and with UO-31 renal was over 100 µM each time.

On to `O=C1CSCc2sccc21`, for which the TGI in the experiment with A498 renal, in the experiment with HL-60(TB) leukemia, in the experiment on HOP-62 NSCLC, in the experiment with HS 578T breast, in the experiment with SR leukemia and in the experiment with SW-620 colon was over 100 µM in each case. The TGI in the experiment on U251 CNS and in the experiment with UO-31 renal was over 100 µM each time.

As for `CCSCC1CC(O)(c2ccccc2)CC(c2ccc(F)cc2)O1` (centres undefined), the GI50 in the experiment on A498 renal is 1.44 µM; with HL-60(TB) leukemia it was 2.19 µM; in the experiment with HOP-62 NSCLC, 1.75 µM; in the experiment with HOP-92 NSCLC, 1.25 µM; in the experiment on HS 578T breast it was 1.89 µM; in the experiment on LOX IMVI melanoma it was 1.6 µM. Further, the GI50 is 1.98 µM in the experiment with SW-620 colon, 1.63 µM in the experiment on U251 CNS and 1.4 µM with UO-31 renal. Also, the TGI with A498 renal was 2.77 µM; in the experiment with HL-60(TB) leukemia, 4.56 µM; in the experiment on HOP-62 NSCLC, 3.29 µM; with HOP-92 NSCLC, 2.72 µM; with HS 578T breast, 4.36 µM; with LOX IMVI melanoma, 2.94 µM. In addition, the TGI worked out at 4.42 µM in the experiment on SW-620 colon, 3.3 µM in the experiment with U251 CNS and 5.1 µM with UO-31 renal.

With `CC(C)(O)[C@@H]1CC[C@@]2(C)CCCC(O)C2(O)C1` (some centres undefined), the TGI in the experiment with A498 renal, in the experiment with HL-60(TB) leukemia, in the experiment on HOP-62 NSCLC, in the experiment with HOP-92 NSCLC, in the experiment on LOX IMVI melanoma and with SR leukemia was over 100 µM each time. Moreover, the TGI in the experiment with SW-620 colon, in the experiment on U251 CNS and in the experiment with UO-31 renal was over 100 µM each time.

For the molecule `O=C1NC(Cc2ccc(O)cc2)C(=O)N2CCCC12` (centres undefined), the TGI in the experiment on A498 renal, in the experiment with HL-60(TB) leukemia, with HOP-62 NSCLC, in the experiment with HOP-92 NSCLC, in the experiment with LOX IMVI melanoma and in the experiment with SR leukemia was over 100 µM in each case. Further, the TGI with SW-620 colon, in the experiment with U251 CNS and in the experiment on UO-31 renal was over 100 µM throughout.

Consider `CC(C)C1=CC(=O)C(C)(C2C(O)CC3(C)C4CC=C5C(CCC(OC6OC(CO)C(O)C(O)C6OC6OC(C)C(O)C(O)C6O)C5(C)C)C4(C)C(=O)CC23C)O1` (centres undefined), for which the TGI with A498 renal, in the experiment with HOP-62 NSCLC, with HOP-92 NSCLC, in the experiment on HS 578T breast, in the experiment on SW-620 colon and with U251 CNS was over 100 µM in each case. The TGI in the experiment on UO-31 renal was over 100 µM.

Consider `COc1ccc(/C=C/C(=O)c2cc(OC)c(OC)c(OC)c2)cc1OCC(=O)Nc1nc2ccc(OC(F)(F)F)cc2s1`, for which the GI50 in the experiment with A498 renal is 7.4 µM; with HOP-62 NSCLC, 2.12 µM; with HOP-92 NSCLC, 2.14 µM; in the experiment with HS 578T breast, 3.08 µM; in the experiment on LOX IMVI melanoma it was 0.47 µM; in the experiment with SR leukemia, 0.391 µM. Besides, the GI50 in the experiment with SW-620 colon was 1.08 µM; in the experiment on U251 CNS, 0.703 µM; in the experiment on UO-31 renal, 1.61 µM. Moreover, the TGI in the experiment on A498 renal was 31.7 µM; in the experiment with HOP-62 NSCLC it was 4.33 µM; in the experiment with HOP-92 NSCLC it was 7.32 µM; in the experiment with HS 578T breast, over 100 µM; in the experiment with LOX IMVI melanoma it was 1.95 µM; with SR leukemia, 3.66 µM. The results for the TGI in the experiment on SW-620 colon, in the experiment on U251 CNS and with UO-31 renal were over 100 µM, 2.58 µM and 5.07 µM, respectively.
